Measurements from US20190336496A1, “SELECTIVE BCL-2 INHIBITORS IN COMBINATION WITH AN ANTI-PD-1 OR AN ANTI-PD-L1 ANTIBODY FOR THE TREATMENT OF CANCERS” (AbbVie Inc., priority 2018, published 2019).

Assays:
NCI-H1975 = test: Venetoclax cell killing (CellTiter-Glo); assay type: cell-based; settings: Homo sapiens, NCI-H1975, 72 h; Lung; 10% FBS; 3 days
Description: (§1) Solid tumor cell lines were obtained from American Type Culture Collection (ATCC, Manassas, Va.) or the National Cancer Institute (NCI) and cultured in humidified incubators at 37° C. (5% CO2) in appropriate media (specified by supplier) supplemented with 10% fetal bovine serum (FBS) or 10% human serum (HS). 24 hours after plating into 96-well or 384-well tissue culture plates, venetoclax was added to cells at various concentrations (typically 0.010 to 10 μM in half-log increments) to perform concentration-response assessments of cell killing. After 1 to 5 days of culture in the presence of venetoclax, cell viability was assessed using CellTiter-Glo® reagent (Promega). IC50 values were determined by non-linear regression analysis of the concentration response data (Table 5 and Table 6).

SKBR3 = test: Venetoclax cell killing (CellTiter-Glo); assay type: cell-based; settings: Homo sapiens, SK-BR-3, 72 h; Breast Cancer; 10% FBS; 3 days
Description: as §1

NCI-H526 = test: Venetoclax cell killing (CellTiter-Glo); assay type: cell-based; settings: Homo sapiens, NCI-H526, 24 h; Lung; 10% FBS; 1 day
Description: as §1

C32 = test: Venetoclax cell killing (CellTiter-Glo); assay type: cell-based; settings: Homo sapiens, C32, 120 h; Melanoma; 10% FBS; 5 days
Description: as §1

NCI-H1048 = test: Venetoclax cell killing (CellTiter-Glo); assay type: cell-based; settings: Homo sapiens, NCI-H1048, 72 h; Lung; 10% FBS; 3 days
Description: as §1

NCI-H1963 = test: Venetoclax cell killing (CellTiter-Glo); assay type: cell-based; settings: Homo sapiens, NCI-H1963, 24 h; Lung; 10% FBS; 1 day
Description: as §1

SW480 = test: Venetoclax cell killing (CellTiter-Glo); assay type: cell-based; settings: Homo sapiens, SW480, 120 h; Colorectal; 10% FBS; 5 days
Description: as §1

NCI-H661 = test: Venetoclax cell killing (CellTiter-Glo); assay type: cell-based; settings: Homo sapiens, NCI-H661, 72 h; Lung; 10% FBS; 3 days
Description: as §1

COLO-205 = test: Venetoclax cell killing (CellTiter-Glo); assay type: cell-based; settings: Homo sapiens, COLO 205, 120 h; Colorectal; 10% FBS; 5 days
Description: as §1

NCI-H209 = test: Venetoclax cell killing (CellTiter-Glo); assay type: cell-based; settings: Homo sapiens, NCI-H209, 24 h; Lung; 10% FBS; 1 day
Description: as §1

A549 = test: Venetoclax cell killing (CellTiter-Glo); assay type: cell-based; settings: Homo sapiens, A549, 72 h; Lung; 10% FBS; 3 days
Description: as §1

NCI-H847 = test: Venetoclax cell killing (CellTiter-Glo); assay type: cell-based; settings: Homo sapiens, 24 h; Lung; 10% FBS; 1 day
Description: as §1

SW48 = test: Venetoclax cell killing (CellTiter-Glo); assay type: cell-based; settings: Homo sapiens, SW48, 120 h; Colorectal; 10% FBS; 5 days
Description: as §1

COLO-320DM = test: Venetoclax cell killing (CellTiter-Glo); assay type: cell-based; settings: Homo sapiens, 120 h, Colorectal, 10% FBS, 5 days
Description: as §1

[1] = tested on: CD4 T-cells co-cultured with MoDCs; test: Mixed lymphocyte reaction (MLR) assay; assay type: cell-based, human
Description: Mixed Lymphocyte Reaction (MLR) assay was used to examine venetoclax effect on T-cell function in response to immune stimulation. Monocytic-derived dendritic cells (MoDCs) were generated from fresh human blood. PBMCs were isolated using a Ficoll gradient. The PBMCs were allowed to adhere for 2 hours. After 2 hours, cells in suspension were removed. Fresh AIM V™ medium (ThermoFisher cat. #12055091) supplemented with granulocyte-macrophage colony-stimulating factor (GM-CSF, 80 ng/mL) and IL-4 (50 ng/mL) was added to the culture. After 5 days, the MoDCs were stimulated with IL-1α and TNF-α (0.2 ng/mL each) for 48 hours to increase major histocompatibility complex class II molecules (MHCII) expression. These activated MoDCs were then co-cultured with CD4 T-cells (Biospecialty Corp.) at a ratio of 10:1 (T-cells:MoDCs) in a mixed lymphocyte reaction (MLR). The cells were treated with control IgG (Isotype) or anti-PD-1 antibody (nivolumab or ABBV-181 along with either dimethyl sulfoxide (DMSO) or BCL-2 inhibitors venetoclax (Compound (I)) or Compounds (II) or (III). Antibodies were added at 10 μg/mL and the compound concentrations of venetoclax were as indicated in FIG. 11. The MLR was cultured for 5 days, after which the cells were analyzed by flow cytometry using an LSRFortessa™ X-20 instrument (BD Biosciences) to determine cell number and functional cytokine (IFNγ) responses.

B16F10 = test: Venetoclax cell killing (CellTiter-Glo); assay type: cell-based, murine; settings: Mus musculus, B16-F10, 72 h; Melanoma; 10% FBS; 3 days
Description: as §1

CT26 = test: Venetoclax cell killing (CellTiter-Glo); assay type: cell-based, murine; settings: Mus musculus, CT26, 72 h; Colorectal; 10% FBS; 3 days
Description: as §1

4T1 = test: Venetoclax cell killing (CellTiter-Glo); assay type: cell-based, murine; settings: Mus musculus, 4T1, 72 h; Breast Cancer; 10% FBS; 3 days
Description: as §1

B16F1 = test: Venetoclax cell killing (CellTiter-Glo); assay type: cell-based, murine; settings: Mus musculus, B16-F1, 72 h; Melanoma; 10% FBS; 3 days
Description: as §1

Renca = test: Venetoclax cell killing (CellTiter-Glo); assay type: cell-based, murine; settings: Mus musculus, 72 h, Renal Adenocarcinoma, 10% FBS, 3 days
Description: as §1

EMT6 = test: Venetoclax cell killing (CellTiter-Glo); assay type: cell-based, murine; settings: Mus musculus, EMT6, 72 h; Breast Cancer; 10% FBS; 3 days
Description: as §1

LL2 = test: Venetoclax cell killing (CellTiter-Glo); assay type: cell-based, murine; settings: Mus musculus, LL/2, 72 h; Lung Cancer; 10% FBS; 3 days
Description: as §1

MC38 = test: Venetoclax cell killing (CellTiter-Glo); assay type: cell-based, murine; settings: Mus musculus, MC-38, 72 h; Colorectal; 10% FBS; 3 days
Description: as §1

CC1(C)CCC(CN2CCN(c3ccc(C(=O)NS(=O)(=O)c4ccc(NCC5CCOCC5)c([N+](=O)[O-])c4)c(Oc4cnc5[nH]ccc5c4)c3)CC2)=C(c2ccc(Cl)cc2)C1 [Compound (I), venetoclax]
IC50 (NCI-H1975): > 10 µM
IC50 (SKBR3): 4.42 µM
IC50 (NCI-H526): > 10 µM
IC50 (C32): > 10 µM
IC50 (NCI-H1048): > 10 µM
IC50 (NCI-H1963): 4.59 µM
IC50 (SW480): > 10 µM
IC50 (NCI-H661): > 10 µM
IC50 (COLO-205): > 10 µM
IC50 (NCI-H209): > 10 µM
IC50 (A549): 3.19 µM
IC50 (NCI-H847): > 10 µM
IC50 (SW48): > 10 µM
IC50 (COLO-320DM): > 10 µM
IFNγ detected in the supernatant ([1]; MLR 5 days): same amount
proportion of CD4+ T-cells that produce IFNγ ([1]; MLR 5 days, with isotype control or anti-PD-1 antibody): increase
number of CD4+ T-cells ([1]; MLR cultured 5 days, antibodies at 10 μg/mL): reduced
CD3+ T cell numbers ([1]; MLR, BCL-2 inhibitors at 1 μM): declined comparably
production of IFNγ (secreted) ([1]; MLR, BCL-2 inhibitors at 1 μM): not antagonized
proportion of CD3+ T-cells that produce IFNγ ([1]; MLR, BCL-2 inhibitors at 1 μM): increase
IC50 (B16F10): > 10 µM
IC50 (CT26): > 10 µM
IC50 (4T1): > 10 µM
IC50 (B16F1): > 10 µM
IC50 (Renca): > 10 µM
IC50 (EMT6): > 10 µM
IC50 (LL2): > 10 µM
IC50 (MC38): ~10 µM
